Test results as given in patent US9249102B2 (priority 2012, dated 2016).
Read-outs that look alike come from different tables or passages of the source.

Columns and labels:
Haemonchus contortus = assay: Method A: Haemonchus contortus L1 larvae, microtitre plate screen; details: 96 h, read-out: motility inhibition
[1] = system: microfilaria of Dirofilaria immitis; assay: Method F: microfilaria of Dirofilaria immitis, survival at 24 hours
[2] = survival of microfilaria at 24 hours

Row | Structure (SMILES) | inhibition at 5 µg/mL (Haemonchus contortus) [%] | EC50 [1] [µg/mL] | EC50 [1, 2] [µg/mL]
1 | O=C(NCCO[C@H]1CC[C@H](Nc2ccc([N+](=O)[O-])c(C(F)(F)F)c2)CC1)C(=O)NCc1cc2cc(C(F)(F)F)ccc2o1 [Compound 223, N^1-(2-(4-(4-nitro-3-(trifluoromethyl)phenylamino)cyclohexyloxy)ethyl)-N^2-((5-(trifluoromethyl)benzofuran-2-yl)methyl)oxalamide] | ≥ 90 | < 0.1 | –
2 | O=C(COc1ccc(Nc2ccc([N+](=O)[O-])c(C(F)(F)F)c2)cc1)N1CCN(CC2Cc3cc(F)ccc3O2)CC1 (stereo not shown) [Compound 185, 1-[4-[(5-fluoro-2,3-dihydro-1-benzofuran-2-yl)methyl]piperazin-1-yl]-2-(4-[[4-nitro-3-(trifluoromethyl)phenyl]amino]phenoxy)ethan-1-one] | ≥ 90 | – | < 0.1
3 | O=C(CO[C@H]1CC[C@H](Nc2ccc([N+](=O)[O-])c(C(F)(F)F)c2)CC1)N1CCN(c2ccc3cc(C(F)(F)F)ccc3c2)CC1 [Compound 232, 2-[4-(4-nitro-3-trifluoromethyl-phenylamino)-cyclohexyloxy]-1-[4-(6-trifluoromethyl-naphthalen-2-yl)-piperazin-1-yl]-ethanone] | ≥ 90 | – | < 5
4 | CC(CN1CCN(c2ccc3ccccc3c2)CC1)C(=O)N1CCC(Nc2ccc([N+](=O)[O-])c(C(F)(F)F)c2)CC1 (stereo not shown) [Compound 13, 2-methyl-3-[4-(naphthalen-2-yl)piperazin-1-yl]-1-(4-[[4-nitro-3-(trifluoromethyl)phenyl]amino]piperidin-1-yl)propan-1-one] | ≥ 90 | – | < 1
5 | O=C(CO[C@H]1CC[C@H](Nc2ccc([N+](=O)[O-])c(C(F)(F)F)c2)CC1)N1CCN(C(=O)C2Cc3cc(C(F)(F)F)ccc3O2)CC1 (stereo partly shown) [Compound 81, 2-[4-(4-nitro-3-trifluoromethyl-phenylamino)-cyclohexyloxy]-1-[4-(5-trifluoromethyl-2,3-dihydro-benzofuran-2-carbonyl)-piperazin-1-yl]-ethanone] | ≥ 90 | – | < 1
6 | O=C(NCCO[C@H]1CC[C@H](Nc2ccc([N+](=O)[O-])c(C(F)(F)F)c2)CC1)C(=O)NCC1Cc2ccccc2O1 (stereo partly shown) [Compound 216] | ≥ 90 | – | < 1
7 | N#Cc1ccc(N[C@H]2CC[C@H](OCC(=O)N3CCN(c4ccc5cc(F)ccc5c4)CC3)CC2)cc1C(F)(F)F [Compound 279, 4-(4-{2-[4-(6-fluoro-naphthalen-2-yl)-piperazin-1-yl]-2-oxo-ethoxy}-cyclohexylamino)-2-trifluoromethyl-benzonitrile] | ≥ 90 | – | < 5
8 | N#Cc1ccc(N[C@H]2CC[C@H](OCC(=O)N3CCN(C(=O)C4Cc5cc(C(F)(F)F)ccc5O4)CC3)CC2)cc1C(F)(F)F (stereo partly shown) [Compound 87, 2-[4-(4-cyano-3-trifluoromethyl-phenylamino)-cyclohexyloxy]-1-[4-(5-trifluoromethyl-2,3-dihydro-benzofuran-2-carbonyl)-piperazin-1-yl]-ethanone] | ≥ 90 | – | < 5
9 | O=C(COc1ccc(Nc2ccc([N+](=O)[O-])c(C(F)(F)F)c2)cc1)N1CCN(Cc2cc3cc(Cl)ccc3o2)CC1 [Compound 184, 1-[4-[(5-chloro-1-benzofuran-2-yl)methyl]piperazin-1-yl]-2-(4-[[4-nitro-3-(trifluoromethyl)phenyl]amino]phenoxy)ethan-1-one] | ≥ 90 | – | < 1
10 | O=C(COc1ccc(Nc2ccc([N+](=O)[O-])c(C(F)(F)F)c2)cc1)N1CCN(C(=O)c2cc3cc(Cl)ccc3o2)CC1 [Compound 189, 1-[4-[(5-chloro-1-benzofuran-2-yl)carbonyl]piperazin-1-yl]-2-(4-[[4-nitro-3-(trifluoromethyl)phenyl]amino]phenoxy)ethan-1-one] | ≥ 90 | – | < 5
11 | O=C(NCCO[C@H]1CC[C@H](Nc2ccc([N+](=O)[O-])c(C(F)(F)F)c2)CC1)C(=O)NCC1Cc2cc(F)ccc2O1 (stereo partly shown) [Compound 217] | ≥ 90 | < 1 | –
